In patent US11541122B2, “Glucose sensitive insulins and uses thereof” (Ziylo Limited, priority 2018, dated 2023):

Experiment: Glucose affinity of macrocycles by fluorescence titration
Assay type: binding
Conditions: pH 7.4, 10 mM phosphate buffer
Description: The optic properties (fluorescence) of the given macrocycle changes between the unbound state, and the glucose-bound state. Titrating the macrocycle with glucose in the relevant glucose concentration range, and measuring the changes in fluorescence of the system can thus give binding curves for binding to glucose, which can be used to determine the glucose binding constant, Ka (and the displacement constant, Kd).
All solutions were maintained at pH 7.4 using 10 mM Phosphate buffer solution. The titration was performed using a Horiba Scientific Duetta fluorescence spectrometer with an excitation wavelength of 310 nm and monitoring emission from 320-550 nm. The excitation and emission slit width/band widths were set to 5 nm. All points were acquired using a 0.5 second integration time and 5 accumulations.
2 mg of compound 6d (Mw=3540 g/mol) was dissolved in […] of ultrapure H2O (pH 7.4, 10 mM PB). The purity of Compound 6d was previously assayed by 1H NMR spectroscopy using a known concentration of DMF in D2O as an internal standard. The purity was calibrated at 80% (40 μM). This was then diluted by a four-fold to give a 10 μM solution of Compound 6d.
D-glucose (180.16 mg) was dissolved in 1 mL 10 mM PB and allowed to stand overnight to allow for equilibration of the a and 13 anomers. This was sequentially diluted to give a 20 mM stock solution of D-glucose. 250 μL of this solution was combined with 250 μL Compound 6d stock solution to give a 10 mM D-glucose/5 μM Compound 6d.
In a 3 mL cuvette, 1500 μL of Solution 1 was diluted with 1500 μL of 10 mM phosphate buffer to give a 5 μM solution. This was titrated with Solution 2. For each addition of titrant solution (Solution 2), the equivalent volume was removed from the cuvette prior to addition to keep the cell volume constant (3000 μL). Each addition was stirred for 1 minute then stirring stopped to allow 1 minute for the sample to equilibrate before acquisition. Additions (in μL): 0, 10, 10, 10, 10, 10, 20, 20, 50, 100, 100.

| SMILES | Kd (glucose), calculated as 1/Ka (D-glucose titration) | Calculated Ka (glucose binding constant, 1:1 binding model) (D-glucose titration, 5 μM macrocycle, excitation 310 nm) | Kd (measured similarly to compound 6d) |
| --- | --- | --- | --- |
| CCc1c2c(CC)c3c(CC)c1CNC(=O)Nc1ccc(C(=O)NC(CCC(=O)NC(CCC(=O)O)(CCC(=O)O)CCC(=O)O)(CCC(=O)NC(CCC(=O)O)(CCC(=O)O)CCC(=O)O)CCC(=O)NC(CCC(=O)O)(CCC(=O)O)CCC(=O)O)cc1NC(=O)NCc1c(CC)c(c(CC)c(c1CC)CNC(=O)Nc1cc(C(=O)NC(CCC(=O)NC(CCC(=O)O)(CCC(=O)O)CCC(=O)O)(CCC(=O)NC(CCC(=O)O)(CCC(=O)O)CCC(=O)O)CCC(=O)NC(CCC(=O)O)(CCC(=O)O)CCC(=O)O)ccc1NC(=O)NC3)CNC(=O)Nc1cc(C(=O)NCCOCCOCCOCCN=[N+]=[N-])ccc1NC(=O)NC2 [compound 6d] | 68 µM | 14751.48 ± 637.3 M⁻¹ |  |
| CCc1c2c(CC)c3c(CC)c1CNC(=O)Nc1ccc(C(=O)NC(CCC(=O)O)(CCC(=O)O)CCC(=O)O)cc1NC(=O)NCc1c(CC)c(c(CC)c(c1CC)CNC(=O)Nc1cc(C(=O)NC(CCC(=O)O)(CCC(=O)O)CCC(=O)O)ccc1NC(=O)NC3)CNC(=O)Nc1cc(C(=O)NCCOCCOCCOCCOCCN=[N+]=[N-])ccc1NC(=O)NC2 [compound 24, G1 Macrocycle PEG5 Azide] |  |  | 131 µM |
